# From the supplement of paper PMC10307832
# Assays:
# Assay in all cases: relative viability (nuclei count vs DMSO), 5 days (fraction); higher = more cells survive
# [1] = test system: ABC-1
# In short: (§1)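 Lung cancer cell lines in 1536-well plates got either a single drug or a fixed anchor-drug dose together with five library-drug doses (not always all listed) in √10 steps, by pin tool, on the day after seeding. Nuclei were counted after 5 days, and relative viability is the treated-to-vehicle ratio of nuclei counts. Values are medians of duplicate plates.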
# [2] = test system: NCI-H2347
# In short: as §1
# [3] = test system: RERF-LC-KJ
# In short: as §1
# [4] = test system: NCI-H2405
# In short: as §1
# [5] = test system: NCI-H1563
# In short: as §1
# [6] = test system: EKVX
# In short: as §1
# [7] = test system: NCI-H3122
# In short: as §1
# [8] = test system: NCI-H1734
# In short: as §1
# [9] = test system: 201T
# In short: as §1
# [10] = test system: NCI-H2023
# In short: as §1
# [11] = test system: EPLC-272H
# In short: as §1
structure (smiles),measurement,setting,value
COc1cc(N2CCC(C(N)=O)CC2)ccc1Nc1nc(N)c(Cl)c(Nc2ccccc2S(=O)(=O)C(C)C)n1 [HG-5-88-01] + CC(C)C[C@H](NC(=O)[C@H](Cc1ccccc1)NC(=O)c1cnccn1)B(O)O [Bortezomib] (partner 0.002 µM),relative viability,[1]; first compound 0.4 µM,0.237
same,relative viability,[1]; first compound 1.265 µM,0.321
same,relative viability,[1]; first compound 4 µM,0.283
same,relative viability,[2]; first compound 0.04 µM,0.954
same,relative viability,[2]; first compound 0.1265 µM,0.873
same,relative viability,[2]; first compound 0.4 µM,1.01
same,relative viability,[2]; first compound 1.265 µM,1.16
same,relative viability,[2]; first compound 4 µM,0.897
same,relative viability,[3]; first compound 0.04 µM,1.23
same,relative viability,[3]; first compound 0.1265 µM,1.19
same,relative viability,[3]; first compound 0.4 µM,1.08
same,relative viability,[3]; first compound 1.265 µM,0.992
same,relative viability,[3]; first compound 4 µM,0.639
same,relative viability,[4]; first compound 0.04 µM,1.01
same,relative viability,[4]; first compound 0.1265 µM,0.977
same,relative viability,[4]; first compound 0.4 µM,0.929
same,relative viability,[4]; first compound 1.265 µM,0.933
same,relative viability,[4]; first compound 4 µM,0.946
same,relative viability,[5]; first compound 0.04 µM,0.827
same,relative viability,[5]; first compound 0.1265 µM,0.92
same,relative viability,[5]; first compound 0.4 µM,0.925
same,relative viability,[5]; first compound 1.265 µM,0.765
same,relative viability,[5]; first compound 4 µM,0.855
same,relative viability,[6]; first compound 0.04 µM,1.09
same,relative viability,[6]; first compound 0.1265 µM,1.02
same,relative viability,[6]; first compound 0.4 µM,1.02
same,relative viability,[6]; first compound 4 µM,0.854
same,relative viability,[7]; first compound 0.04 µM,0.894
same,relative viability,[7]; first compound 0.1265 µM,0.647
same,relative viability,[7]; first compound 0.4 µM,0.335
same,relative viability,[7]; first compound 1.265 µM,0.296
same,relative viability,[7]; first compound 4 µM,0.216
same,relative viability,[8]; first compound 0.04 µM,0.899
same,relative viability,[8]; first compound 0.1265 µM,0.975
same,relative viability,[8]; first compound 0.4 µM,0.958
same,relative viability,[8]; first compound 1.265 µM,0.868
same,relative viability,[8]; first compound 4 µM,0.83
same,relative viability,[9]; first compound 0.04 µM,1.12
same,relative viability,[9]; first compound 0.1265 µM,1.03
same,relative viability,[9]; first compound 0.4 µM,1.1
same,relative viability,[9]; first compound 1.265 µM,1.06
same,relative viability,[9]; first compound 4 µM,1.2
same,relative viability,[10]; first compound 0.04 µM,1.08
same,relative viability,[10]; first compound 0.1265 µM,1.34
same,relative viability,[10]; first compound 0.4 µM,0.753
same,relative viability,[10]; first compound 1.265 µM,0.542
same,relative viability,[10]; first compound 4 µM,0.454
same,relative viability,[11]; first compound 0.04 µM,0.854
same,relative viability,[11]; first compound 0.1265 µM,0.941
same,relative viability,[11]; first compound 0.4 µM,1
same,relative viability,[11]; first compound 1.265 µM,0.851
same,relative viability,[11]; first compound 4 µM,0.385
